In PMC11477000, “Enantioselective Binding of Proton Pump Inhibitors to Alpha1-Acid Glycoprotein and Human Serum Albumin—A Chromatographic, Spectroscopic, and In Silico Study” (International Journal of Molecular Sciences, 2024):

How the values were obtained:
[1] = target: T1, human serum albumin (HSA) (Homo sapiens, UniProt P02768); assay: Displacement chromatography on HSA column with warfarin and ibuprofen as competitors; format: binding; details: IPA:10 mM pH 7 phosphate buffer 1:99, 25 °C
Experimental: For identification of the binding site of HSA, a displacement chromatography and fluorescence displacement study were performed. In the case of chromatography, to the mobile phase, increasing concentrations of the competitors, warfarin and ibuprofen, that are known to bind to specific binding sites on HSA, Sudlow site I and Sudlow site II, respectively, were added. In the case of the fluorescence displacement study, the fluorescence quenching data of the PPI-HSA system in the presence of warfarin and ibuprofen were investigated.
(Chromatographic parameter: Column temperature: 25 °C,
mobile phase: IPA : 10 mM pH 7 sodium phosphate buffer 1:99, flow rate: 0.7 mL/min, detection

[2] = target: T1, human serum albumin (HSA); assay: HPLC on HSA-based chiral stationary phase (Daicel Chiralpak HSA column); format: binding; details: HSA column, 10 mM pH 7 phosphate buffer, 25 °C
Experimental: HPLC using a protein-based chiral stationary phase is a fully automated method for obtaining rapid information about the binding of compounds to the respective proteins. Enantioseparation occurs in the case of unequal binding constants of the individual enantiomers to the immobilized proteins, thus allowing enantioselective binding to be characterized even when a racemic mixture was injected. As a preliminary step, the enantiospecific binding was investigated on columns containing AGP and HSA in various alcohol:buffer mixtures. A pH 7 phosphate buffer was employed as the aqueous part of the mobile phase, while for the organic part, three different alcohols were evaluated.
In the following step, we investigated the effect of changing some other chromatographic conditions on the protein binding. The pH of the aqueous phase influenced the protonation state of both the analyte and the proteins. It should be noted that the pH tolerance of protein-based columns is narrow due to the possible denaturation of proteins. Taking into account the guidelines of the manufacturer, three different pH values were investigated (pH 6, 6.5, and 7) at a 95:5 (v/v%) buffer:IPA eluents ratio [49]. The buffer was uniformly 10 mM phosphate. […] The effect of different buffer constituents was also evaluated. In addition to phosphate buffer, ammonium acetate, ammonium bicarbonate, and sodium citrate were tested and compared under the same conditions.
Chromatographic measurements were carried out on two separate HPLC systems. The AGP binding study was performed on a Waters 2695e chromatographic system paired with a Waters 2996 PDA detector, controlled by Empower 3 FR5 (Waters Corp., Milford, MA, USA), while the HSA binding study was performed on an Agilent 1100 HPLC system, consisting of an inline degasser (G1322A), a quaternary pump (G1311A), an automatic injector (G1329A) paired with sample thermostat (G1330A), a column thermostat (G1316A), and a diode array detector (G1315A) with Agilent Chemstation B04.03-SP2 software (Agilent, Bronnwald, Germany). For the binding studies, two protein-based chiral stationary phases were utilized. The chromatographic binding study for AGP was conducted on a ChromTech Chiral-AGP column (150 mm × 4.0 mm; ChromTech Ltd., Congleton, UK), while the binding study for HSA was performed on a Daicel Chiralpak HSA column (50 mm × 4.0 mm; Daicel Corp., Osaka, Japan). The detection wavelength was 210 nm for all measurements. The stock solutions of PPIs were prepared at a concentration of 1 mg/mL in MeOH. Subsequent dilutions were prepared using water. The injected samples were mixed and diluted from the stock solutions. The final concentration for the eutomer was 0.2 mg/mL, and for the distomer, it was 0.1 mg/mL. A volume of 2 μL was injected. To mitigate the instability of PPIs in aqueous solutions, the samples were kept at a temperature of 4 °C.

T1 sequence (P02768 25-609): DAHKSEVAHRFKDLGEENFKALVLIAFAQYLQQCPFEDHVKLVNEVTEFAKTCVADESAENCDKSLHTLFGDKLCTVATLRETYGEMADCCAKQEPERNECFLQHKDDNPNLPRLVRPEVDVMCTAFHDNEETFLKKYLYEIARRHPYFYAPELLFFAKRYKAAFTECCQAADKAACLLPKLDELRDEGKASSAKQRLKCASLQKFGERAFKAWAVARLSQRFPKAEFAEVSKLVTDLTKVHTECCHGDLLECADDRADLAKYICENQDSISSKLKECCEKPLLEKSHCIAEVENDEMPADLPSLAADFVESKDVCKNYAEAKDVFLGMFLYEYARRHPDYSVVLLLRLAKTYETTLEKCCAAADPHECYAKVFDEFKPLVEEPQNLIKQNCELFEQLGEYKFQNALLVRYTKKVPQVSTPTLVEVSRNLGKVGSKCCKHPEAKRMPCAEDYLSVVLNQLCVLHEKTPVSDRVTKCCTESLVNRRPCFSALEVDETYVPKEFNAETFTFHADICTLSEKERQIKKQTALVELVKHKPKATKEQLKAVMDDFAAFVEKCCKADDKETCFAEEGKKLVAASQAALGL

| Compound | k retention factor ([1]; ibuprofen 0 mM) | k retention factor ([1]; ibuprofen 0.01 mM) | k retention factor ([1]; ibuprofen 0.05 mM) | k retention factor ([1]; ibuprofen 0.1 mM) | k retention factor ([1]; warfarin 0 mM) | k retention factor ([1]; warfarin 0.01 mM) | k retention factor ([1]; warfarin 0.05 mM) | k retention factor ([1]; warfarin 0.1 mM) | k1 retention factor (first-eluting enantiomer) ([2]; 1% EtOH) | k2 retention factor (second-eluting enantiomer) ([2]; 1% EtOH) | k1 retention factor (first-eluting enantiomer) ([2]; 1% IPA) | k2 retention factor (second-eluting enantiomer) ([2]; 1% IPA) | k1 retention factor (first-eluting enantiomer) ([2]; 1% MeOH) | k2 retention factor (second-eluting enantiomer) ([2]; 1% MeOH) | k1 retention factor (first-eluting enantiomer) ([2]; 2.5% EtOH) | k2 retention factor (second-eluting enantiomer) ([2]; 2.5% EtOH) | k1 retention factor (first-eluting enantiomer) ([2]; 2.5% IPA) | k2 retention factor (second-eluting enantiomer) ([2]; 2.5% IPA) | k1 retention factor (first-eluting enantiomer) ([2]; 2.5% MeOH) | k2 retention factor (second-eluting enantiomer) ([2]; 2.5% MeOH) | further results |
| --- | --- | --- | --- | --- | --- | --- | --- | --- | --- | --- | --- | --- | --- | --- | --- | --- | --- | --- | --- | --- | --- |
| COCCCOc1ccnc(C[S+]([O-])c2nc3ccccc3[nH]2)c1C (centres unmarked) [Rabeprazole, rabeprazole] | 7.21 | 6.67 | 5.87 | 5.05 | 7.21 | 5.81 | 4.98 | 4.73 | 6.16 | 6.16 | 7.21 | 7.21 | 6.61 | 6.61 | 3.97 | 3.97 | 5.45 | 5.45 | 5.08 | 5.08 | k1 retention factor (first-eluting enantiomer) ([2]; 5% EtOH): 2.87; k2 retention factor (second-eluting enantiomer) ([2]; 5% EtOH): 2.87; k1 retention factor (first-eluting enantiomer) ([2]; 5% IPA): 3.32; k2 retention factor (second-eluting enantiomer) ([2]; 5% IPA): 3.32; k1 retention factor (first-eluting enantiomer) ([2]; 5% MeOH): 3.68; k2 retention factor (second-eluting enantiomer) ([2]; 5% MeOH): 3.68; k1 retention factor (first-eluting enantiomer) ([2]; 7.5% EtOH): 2.16; k2 retention factor (second-eluting enantiomer) ([2]; 7.5% EtOH): 2.16; k1 retention factor (first-eluting enantiomer) ([2]; 7.5% IPA): 2.37; k2 retention factor (second-eluting enantiomer) ([2]; 7.5% IPA): 2.37; k1 retention factor (first-eluting enantiomer) ([2]; 7.5% MeOH): 2.95; k2 retention factor (second-eluting enantiomer) ([2]; 7.5% MeOH): 2.95; k1 retention factor (first-eluting enantiomer) ([2]; 10% EtOH): 1.66; k2 retention factor (second-eluting enantiomer) ([2]; 10% EtOH): 1.66; k1 retention factor (first-eluting enantiomer) ([2]; 10% IPA): 1.79; k2 retention factor (second-eluting enantiomer) ([2]; 10% IPA): 1.79; k1 retention factor (first-eluting enantiomer) ([2]; 10% MeOH): 2.34; k2 retention factor (second-eluting enantiomer) ([2]; 10% MeOH): 2.34; k1 retention factor (first-eluting enantiomer) ([2]; 12.5% IPA): 1.37; k2 retention factor (second-eluting enantiomer) ([2]; 12.5% IPA): 1.37 |
| COc1ccc2[nH]c([S+]([O-])Cc3ncc(C)c(OC)c3C)nc2c1 (centres unmarked) [Omeprazole, omeprazole] | 9.53 | 7.96 | 6.31 | 5.22 | 9.53 | 8.57 | 7.71 | 6.98 | 9.89 | 9.89 | 9.53 | 9.53 | 7.79 | 7.79 | 5.53 | 5.53 | 8.66 | 8.66 | 6.37 | 6.37 | k1 retention factor (first-eluting enantiomer) ([2]; 5% EtOH): 3.68; k2 retention factor (second-eluting enantiomer) ([2]; 5% EtOH): 3.68; k1 retention factor (first-eluting enantiomer) ([2]; 5% IPA): 4.34; k2 retention factor (second-eluting enantiomer) ([2]; 5% IPA): 4.34; k1 retention factor (first-eluting enantiomer) ([2]; 5% MeOH): 4.95; k2 retention factor (second-eluting enantiomer) ([2]; 5% MeOH): 4.95; k1 retention factor (first-eluting enantiomer) ([2]; 7.5% EtOH): 2.61; k2 retention factor (second-eluting enantiomer) ([2]; 7.5% EtOH): 2.61; k1 retention factor (first-eluting enantiomer) ([2]; 7.5% IPA): 2.82; k2 retention factor (second-eluting enantiomer) ([2]; 7.5% IPA): 2.82; k1 retention factor (first-eluting enantiomer) ([2]; 7.5% MeOH): 3.82; k2 retention factor (second-eluting enantiomer) ([2]; 7.5% MeOH): 3.82; k1 retention factor (first-eluting enantiomer) ([2]; 10% EtOH): 1.97; k2 retention factor (second-eluting enantiomer) ([2]; 10% EtOH): 1.97; k1 retention factor (first-eluting enantiomer) ([2]; 10% IPA): 2.03; k2 retention factor (second-eluting enantiomer) ([2]; 10% IPA): 2.03; k1 retention factor (first-eluting enantiomer) ([2]; 10% MeOH): 2.97; k2 retention factor (second-eluting enantiomer) ([2]; 10% MeOH): 2.97; k1 retention factor (first-eluting enantiomer) ([2]; 12.5% IPA): 1.50; k2 retention factor (second-eluting enantiomer) ([2]; 12.5% IPA): 1.50 |
